ChEMBL document CHEMBL1201862, “PubChem BioAssay data set” (2004)
Where a name gives a salt, the structure may show the parent alone. Each block holds one molecule with its values, some of them ahead of it. Calls of active or inactive are those of the source.

Legend:
[1] = molecular target: ORF 73 (Human herpesvirus 8, UniProt O40947); experiment: KSHV LANA DNA-binding disruption – biochemical, fluorescence polarization, cherry-picked samples, dose response (AID 504725); parameters: species or system Human gammaherpesvirus 8;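 further: fluorescence polarization of a labeled DNA duplex reporting LANA DNA binding; potency is for inhibitors that block LANA binding to the DNA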
Chain of ORF 73 (O40947 whole entry): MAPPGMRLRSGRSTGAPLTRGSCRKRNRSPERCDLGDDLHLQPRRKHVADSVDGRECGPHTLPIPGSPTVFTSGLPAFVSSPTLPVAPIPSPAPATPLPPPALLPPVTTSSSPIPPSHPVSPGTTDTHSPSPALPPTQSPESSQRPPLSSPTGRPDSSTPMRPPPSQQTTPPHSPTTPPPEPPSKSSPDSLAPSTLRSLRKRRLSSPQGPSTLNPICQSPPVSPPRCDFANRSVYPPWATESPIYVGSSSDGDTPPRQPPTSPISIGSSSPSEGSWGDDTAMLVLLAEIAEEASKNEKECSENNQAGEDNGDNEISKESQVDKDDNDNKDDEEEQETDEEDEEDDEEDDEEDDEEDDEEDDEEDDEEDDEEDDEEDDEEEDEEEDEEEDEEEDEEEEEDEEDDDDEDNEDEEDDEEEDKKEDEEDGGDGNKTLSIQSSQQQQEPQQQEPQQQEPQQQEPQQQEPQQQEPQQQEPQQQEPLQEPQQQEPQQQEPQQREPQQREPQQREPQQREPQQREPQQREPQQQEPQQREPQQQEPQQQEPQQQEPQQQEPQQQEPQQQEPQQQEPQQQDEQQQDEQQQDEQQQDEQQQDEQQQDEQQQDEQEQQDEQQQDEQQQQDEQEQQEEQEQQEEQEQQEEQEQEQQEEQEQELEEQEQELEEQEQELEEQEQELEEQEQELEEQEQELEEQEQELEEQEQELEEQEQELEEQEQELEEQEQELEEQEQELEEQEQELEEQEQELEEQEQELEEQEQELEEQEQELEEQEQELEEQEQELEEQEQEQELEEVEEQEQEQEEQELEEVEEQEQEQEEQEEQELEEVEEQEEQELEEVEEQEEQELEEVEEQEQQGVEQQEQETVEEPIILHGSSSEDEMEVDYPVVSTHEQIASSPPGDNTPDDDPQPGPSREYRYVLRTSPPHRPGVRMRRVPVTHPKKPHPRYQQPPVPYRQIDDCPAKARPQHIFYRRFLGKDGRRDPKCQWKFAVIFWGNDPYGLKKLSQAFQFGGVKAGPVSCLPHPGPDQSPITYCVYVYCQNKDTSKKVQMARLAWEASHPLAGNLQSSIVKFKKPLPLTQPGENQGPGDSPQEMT

[2] = tested on: Salmon testes DNA; experiment: acridine orange-DNA binding displacement – biochemical, fluorescence polarization, cherry-picked samples, set 2, artefact control for KSHV LANA DNA-binding inhibitor project, dose response (AID 504727); parameters: species or system Salmonidae
[3] = molecular target: Potassium voltage-gated channel subfamily KQT member 2 (Rattus norvegicus, UniProt O88943); experiment: potentiation of rat KCNQ2 current – cell-based, retigabine-insensitive compounds, dose response (AID 2654); assay type: functional
Chain of Potassium voltage-gated channel subfamily KQT member 2 (O88943 whole entry, the tested form may be a part): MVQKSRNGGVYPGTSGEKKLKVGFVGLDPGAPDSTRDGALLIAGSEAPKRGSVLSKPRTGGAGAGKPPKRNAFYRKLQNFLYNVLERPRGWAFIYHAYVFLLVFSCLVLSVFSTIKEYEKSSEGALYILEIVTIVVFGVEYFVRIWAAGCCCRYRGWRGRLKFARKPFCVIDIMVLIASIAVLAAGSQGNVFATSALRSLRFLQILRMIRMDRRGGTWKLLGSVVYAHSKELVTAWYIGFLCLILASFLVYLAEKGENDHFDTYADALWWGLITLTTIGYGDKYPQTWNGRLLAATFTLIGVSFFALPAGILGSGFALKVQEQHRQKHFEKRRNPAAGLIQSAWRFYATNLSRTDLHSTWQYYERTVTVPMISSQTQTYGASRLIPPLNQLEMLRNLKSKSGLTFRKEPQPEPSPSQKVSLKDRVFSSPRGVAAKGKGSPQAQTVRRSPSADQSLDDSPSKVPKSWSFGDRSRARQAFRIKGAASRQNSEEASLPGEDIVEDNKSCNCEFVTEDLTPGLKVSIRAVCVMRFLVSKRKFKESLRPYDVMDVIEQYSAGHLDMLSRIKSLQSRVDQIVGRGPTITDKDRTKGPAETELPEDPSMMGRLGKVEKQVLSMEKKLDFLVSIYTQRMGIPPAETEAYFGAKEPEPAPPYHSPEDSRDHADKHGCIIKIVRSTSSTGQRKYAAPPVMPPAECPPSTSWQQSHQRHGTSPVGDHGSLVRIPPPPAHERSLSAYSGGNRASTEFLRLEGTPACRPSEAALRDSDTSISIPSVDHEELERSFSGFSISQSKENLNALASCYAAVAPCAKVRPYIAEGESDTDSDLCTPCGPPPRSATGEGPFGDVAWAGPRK

[4] = molecular target: T1, RNA-binding protein pos-1 (Caenorhabditis elegans, UniProt G5EF15); experiment: disruptors of C. elegans POS-1 RNA interaction – biochemical, fluorescence polarization, dose response (AID 1964);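 further: purified POS-1 fused to maltose binding protein made in E. coli; potency of compounds blocking POS-1 binding to fluorescent RNA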
T1 sequence (G5EF15 whole entry): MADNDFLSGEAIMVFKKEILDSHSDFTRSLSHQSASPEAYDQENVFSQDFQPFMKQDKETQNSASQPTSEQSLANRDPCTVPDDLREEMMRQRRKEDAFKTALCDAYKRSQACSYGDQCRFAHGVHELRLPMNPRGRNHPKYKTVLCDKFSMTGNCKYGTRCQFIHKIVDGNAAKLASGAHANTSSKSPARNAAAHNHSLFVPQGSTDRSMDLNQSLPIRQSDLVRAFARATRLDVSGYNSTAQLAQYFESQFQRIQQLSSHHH

[5] = molecular target: Intestinal-type alkaline phosphatase (Mus musculus, UniProt P24822); experiment: PubChem AID 488874; assay type: functional
Chain of Intestinal-type alkaline phosphatase (Mus musculus, UniProt P24822) (P24822 whole entry): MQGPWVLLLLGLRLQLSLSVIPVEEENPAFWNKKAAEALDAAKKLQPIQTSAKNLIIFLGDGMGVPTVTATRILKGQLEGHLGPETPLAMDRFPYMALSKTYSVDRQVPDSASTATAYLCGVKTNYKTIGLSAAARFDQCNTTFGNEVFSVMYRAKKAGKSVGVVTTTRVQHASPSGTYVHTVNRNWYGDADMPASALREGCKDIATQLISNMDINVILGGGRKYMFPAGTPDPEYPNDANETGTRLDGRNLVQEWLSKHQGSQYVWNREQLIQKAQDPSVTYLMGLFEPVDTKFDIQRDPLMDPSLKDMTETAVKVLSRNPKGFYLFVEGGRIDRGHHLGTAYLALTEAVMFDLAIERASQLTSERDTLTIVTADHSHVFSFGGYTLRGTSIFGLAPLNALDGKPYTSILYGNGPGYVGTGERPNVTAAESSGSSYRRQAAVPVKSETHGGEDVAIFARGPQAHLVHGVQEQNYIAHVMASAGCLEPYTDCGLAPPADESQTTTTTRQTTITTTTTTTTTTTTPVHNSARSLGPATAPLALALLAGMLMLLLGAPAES

[6] = bead-based luminescence quenchers, dual-tagged ARNT – biochemical, AlphaScreen, cherry-pick, artefact control for ARNT-TACC3 interaction inhibitor project, dose response (AID 651705); assay type: functional;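 further: AlphaScreen bead proximity signal that flags compounds interfering with the detection technology; potency reflects signal decrease which marks the compound as an assay artifact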
[7] = molecular target: T2, Alkaline phosphatase, tissue-nonspecific isozyme (Homo sapiens, UniProt P05186); experiment: activation of tissue-nonspecific alkaline phosphatase – biochemical, TNAP isozyme, human IAP uHTS hits, selectivity assay for human IAP activator project, dose response (AID 488886); assay type: functional;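 further: potency of compounds raising TNAP activity as a selectivity check on IAP activators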
T2 sequence (P05186 whole entry): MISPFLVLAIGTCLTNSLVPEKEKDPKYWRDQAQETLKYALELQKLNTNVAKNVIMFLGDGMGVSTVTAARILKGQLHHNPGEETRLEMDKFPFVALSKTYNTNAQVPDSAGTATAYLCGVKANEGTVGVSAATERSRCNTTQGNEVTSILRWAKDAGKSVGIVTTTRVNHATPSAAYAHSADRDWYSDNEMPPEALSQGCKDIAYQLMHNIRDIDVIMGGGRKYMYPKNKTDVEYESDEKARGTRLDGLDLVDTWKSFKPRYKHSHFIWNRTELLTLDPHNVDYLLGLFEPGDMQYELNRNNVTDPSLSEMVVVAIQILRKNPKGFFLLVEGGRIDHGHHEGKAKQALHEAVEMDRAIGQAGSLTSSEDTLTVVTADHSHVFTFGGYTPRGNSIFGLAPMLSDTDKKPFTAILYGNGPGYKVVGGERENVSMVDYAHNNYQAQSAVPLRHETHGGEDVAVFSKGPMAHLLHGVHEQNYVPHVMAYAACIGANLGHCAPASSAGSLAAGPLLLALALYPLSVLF

[8] = molecular target: T3, Polyadenylate-binding protein 1 (Homo sapiens, UniProt P11940); experiment: MLLE binding blockers, Cy5 peptide tracer – biochemical, fluorescence polarization, Cy5-PAM2 peptide, secondary, miRNA deadenylation inhibitor project, dose response (AID 602260); assay type: functional; conditions: read-out: IC50_Mean
T3 sequence (P11940 whole entry): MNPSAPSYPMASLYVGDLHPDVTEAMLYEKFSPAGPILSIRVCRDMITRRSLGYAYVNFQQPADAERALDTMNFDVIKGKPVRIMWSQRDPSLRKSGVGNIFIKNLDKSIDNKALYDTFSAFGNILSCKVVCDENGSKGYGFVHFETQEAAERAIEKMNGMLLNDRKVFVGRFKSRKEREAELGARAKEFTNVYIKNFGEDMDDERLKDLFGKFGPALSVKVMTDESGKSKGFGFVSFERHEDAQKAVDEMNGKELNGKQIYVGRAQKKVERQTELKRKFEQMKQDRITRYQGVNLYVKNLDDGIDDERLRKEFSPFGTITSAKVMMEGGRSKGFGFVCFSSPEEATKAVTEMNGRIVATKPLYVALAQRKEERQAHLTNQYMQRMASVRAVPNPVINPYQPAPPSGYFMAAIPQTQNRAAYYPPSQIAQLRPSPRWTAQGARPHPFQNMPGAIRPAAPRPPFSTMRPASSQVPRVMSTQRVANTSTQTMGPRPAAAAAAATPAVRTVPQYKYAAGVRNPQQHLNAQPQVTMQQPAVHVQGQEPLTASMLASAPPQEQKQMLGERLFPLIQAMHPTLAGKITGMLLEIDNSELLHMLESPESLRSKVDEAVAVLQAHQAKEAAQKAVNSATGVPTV

[9] = molecular target: T4, Zinc finger protein mex-5 (Caenorhabditis elegans, UniProt Q9XUB2); experiment: potency of MEX-5 RNA-binding blockers – biochemical, C. elegans, fluorescence polarization, dose response (AID 1960)
T4 sequence (Q9XUB2 whole entry): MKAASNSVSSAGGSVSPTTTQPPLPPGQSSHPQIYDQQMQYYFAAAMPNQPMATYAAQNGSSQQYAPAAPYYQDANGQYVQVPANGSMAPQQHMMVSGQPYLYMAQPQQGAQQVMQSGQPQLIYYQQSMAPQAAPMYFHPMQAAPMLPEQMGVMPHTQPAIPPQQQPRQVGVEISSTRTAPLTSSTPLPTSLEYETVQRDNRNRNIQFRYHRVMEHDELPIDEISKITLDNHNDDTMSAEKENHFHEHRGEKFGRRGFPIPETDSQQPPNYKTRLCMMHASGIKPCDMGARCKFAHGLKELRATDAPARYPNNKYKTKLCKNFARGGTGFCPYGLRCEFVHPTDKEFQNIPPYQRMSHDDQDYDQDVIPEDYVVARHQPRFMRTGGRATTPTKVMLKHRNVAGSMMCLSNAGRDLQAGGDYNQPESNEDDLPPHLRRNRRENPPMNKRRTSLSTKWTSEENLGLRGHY

[10] = molecular target: T5, SUMO-activating enzyme (Homo sapiens, UniProt Q9UBT2); experiment: blockers of UBC9-mediated SUMO conjugation – biochemical, AlphaScreen, SUMOylation inhibitor project, confirmation (AID 2018); assay type: functional
T5 sequence (Q9UBE0 whole entry): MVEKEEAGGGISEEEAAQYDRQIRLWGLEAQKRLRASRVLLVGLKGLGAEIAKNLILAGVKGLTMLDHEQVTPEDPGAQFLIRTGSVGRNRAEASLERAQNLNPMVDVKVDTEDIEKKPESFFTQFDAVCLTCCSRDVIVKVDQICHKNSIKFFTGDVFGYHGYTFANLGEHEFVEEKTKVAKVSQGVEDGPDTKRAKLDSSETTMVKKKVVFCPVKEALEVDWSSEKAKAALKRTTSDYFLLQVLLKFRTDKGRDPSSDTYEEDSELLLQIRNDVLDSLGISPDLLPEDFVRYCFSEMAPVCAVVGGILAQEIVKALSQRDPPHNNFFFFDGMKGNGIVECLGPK
T5 sequence (Q9UBT2 whole entry): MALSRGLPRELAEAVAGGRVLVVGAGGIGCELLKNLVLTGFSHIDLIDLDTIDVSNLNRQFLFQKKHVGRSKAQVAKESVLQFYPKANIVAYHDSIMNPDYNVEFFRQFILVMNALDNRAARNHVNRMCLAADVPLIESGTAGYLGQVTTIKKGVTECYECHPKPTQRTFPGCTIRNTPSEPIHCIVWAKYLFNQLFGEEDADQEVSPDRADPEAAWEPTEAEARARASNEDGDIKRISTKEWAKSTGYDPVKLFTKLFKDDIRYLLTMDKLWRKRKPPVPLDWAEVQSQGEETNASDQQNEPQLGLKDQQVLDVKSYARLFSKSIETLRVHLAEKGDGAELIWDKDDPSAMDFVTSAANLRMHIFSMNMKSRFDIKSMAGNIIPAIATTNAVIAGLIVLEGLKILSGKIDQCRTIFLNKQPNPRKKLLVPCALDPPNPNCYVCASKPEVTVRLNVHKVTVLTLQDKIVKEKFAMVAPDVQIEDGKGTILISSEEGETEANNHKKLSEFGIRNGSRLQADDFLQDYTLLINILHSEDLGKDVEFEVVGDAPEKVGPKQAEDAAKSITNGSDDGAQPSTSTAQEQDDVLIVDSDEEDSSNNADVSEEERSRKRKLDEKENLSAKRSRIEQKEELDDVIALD

[11] = molecular target: T5, SUMO-activating enzyme; experiment: blockers of SAE1/SAE2–UBC9 SUMO transfer – biochemical, HTRF, uHTS, primary screen (AID 2006); assay type: protein-complex assay
[12] = molecular target: T6, Intestinal-type alkaline phosphatase (Homo sapiens, UniProt P09923); experiment: activation of human intestinal alkaline phosphatase – biochemical, luminescent, uHTS hits, set 2, dose response (AID 488817); assay type: functional;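 further: potency of activators that raise enzyme activity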
T6 sequence (P09923 whole entry): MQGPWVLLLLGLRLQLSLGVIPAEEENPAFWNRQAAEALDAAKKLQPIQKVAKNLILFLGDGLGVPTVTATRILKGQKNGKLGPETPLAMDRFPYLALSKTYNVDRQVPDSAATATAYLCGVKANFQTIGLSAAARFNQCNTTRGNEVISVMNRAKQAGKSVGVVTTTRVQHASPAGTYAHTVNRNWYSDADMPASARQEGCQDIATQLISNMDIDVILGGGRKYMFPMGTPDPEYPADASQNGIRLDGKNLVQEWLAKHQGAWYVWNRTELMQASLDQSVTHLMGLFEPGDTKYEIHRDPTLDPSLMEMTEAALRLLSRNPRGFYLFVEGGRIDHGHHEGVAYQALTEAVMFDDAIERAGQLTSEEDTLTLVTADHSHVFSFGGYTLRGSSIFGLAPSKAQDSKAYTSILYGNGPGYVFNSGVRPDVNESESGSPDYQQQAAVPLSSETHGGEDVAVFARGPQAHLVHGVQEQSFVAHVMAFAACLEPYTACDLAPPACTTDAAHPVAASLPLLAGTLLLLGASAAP

[13] = molecular target: T6, Intestinal-type alkaline phosphatase; experiment: human intestinal alkaline phosphatase activators, dose response, biochemical, luminescence, uHTS hits (AID 463120); assay type: functional
[14] = molecular target: T3, Polyadenylate-binding protein 1; experiment: MLLE domain peptide-binding blockers, IC50 – biochemical, fluorescence polarization, FITC-PAM2 peptide, dose response (AID 602259); assay type: functional; conditions: read-out: IC50_Mean

AC50 [1]: 20.1 µM (active)
SMILES: Cc1ccc(N(CC(=O)N2CCOCC2)S(C)(=O)=O)cc1
AC50 [2]: 70.1 µM (active)

EC50 [3]: 16.8 µM (active)
SMILES: Cc1cccc(NC(=O)Nc2cccnc2)c1

EC50 [4]: 37.5 µM (active)
IC50 [5]: 50.9 µM (active)
EC50 [7]: > 100 µM (inactive)
IC50 [8]: > 66 µM (inactive)
EC50 [9]: 0.112 µM (active)
IC50 [10]: 1.66 µM (active)
IC50 [11]: 23.2 µM (active)
EC50 [12]: 8.88 µM (active)
EC50 [13]: 5.47 µM (active)
IC50 [14]: 45 µM (inactive)
SMILES: NC(CO)C(=O)NNCc1ccc(O)c(O)c1O (centres undefined) [BENSERAZIDE HYDROCHLORIDE]
AC50 [6]: 96.7 µM (active)
